What was measured:
myeloperoxidase (MPO) [1] = molecular target: T1, myeloperoxidase (MPO) (Homo sapiens (Human), UniProt P05164); assay: MPO peroxidation assay (Amplex Red assay); assay type: biochemical; conditions: potency range class
Procedure, shortened: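 Human MPO at 200 pM with 40 nM H2O2 preincubated 10 min at room temperature with inhibitor in 100 mM KPi pH 7.4. Reaction started with Amplex Red mixture (200 μM Amplex Red, 10 mM H2O2); resorufin fluorescence (Ex 535, Em 590 nm) read kinetically for 15 min. IC50 fitted from slopes over 180-540 s.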

myeloperoxidase (MPO) [2] = molecular target: T1, myeloperoxidase (MPO); assay: MPO chlorination assay (APF assay); assay type: biochemical; conditions: potency range class
Procedure, shortened: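 Human MPO (200 pM) preincubated 10 min at room temperature with inhibitor and 120 mM NaCl in 100 mM KPi pH 7.4. Reaction started with APF plus 10 μM H2O2, and hypochlorite-generated fluorescein read kinetically (ex 485/em 535 nm) for 3 min. IC50 from linear-phase slopes fitted to a four-parameter equation.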

T1 sequence (P05164 49-745): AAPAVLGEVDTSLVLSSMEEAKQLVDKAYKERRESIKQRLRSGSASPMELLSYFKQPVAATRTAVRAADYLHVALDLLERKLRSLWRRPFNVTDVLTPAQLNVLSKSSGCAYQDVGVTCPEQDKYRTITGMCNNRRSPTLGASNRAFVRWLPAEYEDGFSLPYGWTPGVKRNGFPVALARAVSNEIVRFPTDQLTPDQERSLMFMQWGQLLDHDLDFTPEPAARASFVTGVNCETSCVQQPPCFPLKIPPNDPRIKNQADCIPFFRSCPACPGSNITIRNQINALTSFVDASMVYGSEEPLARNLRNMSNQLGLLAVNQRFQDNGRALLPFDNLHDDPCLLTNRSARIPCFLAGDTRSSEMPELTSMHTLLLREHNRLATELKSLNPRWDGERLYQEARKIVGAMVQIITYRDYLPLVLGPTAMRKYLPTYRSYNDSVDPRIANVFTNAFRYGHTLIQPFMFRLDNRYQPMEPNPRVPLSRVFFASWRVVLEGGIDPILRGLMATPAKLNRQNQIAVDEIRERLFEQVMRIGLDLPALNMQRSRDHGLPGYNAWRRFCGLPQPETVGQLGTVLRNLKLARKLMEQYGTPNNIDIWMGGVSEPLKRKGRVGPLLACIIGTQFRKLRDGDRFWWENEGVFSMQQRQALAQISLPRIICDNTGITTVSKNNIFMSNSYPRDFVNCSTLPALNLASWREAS

| SMILES | IC50 (myeloperoxidase (MPO) [1]) [µM] | IC50 (myeloperoxidase (MPO) [2]) [µM] |
| --- | --- | --- |
| Nc1cc(Cc2cnn(Cc3cccc(-c4ccccc4)n3)c2)c2nn[nH]c2n1 [Example 123, 7-((1-((6-Phenylpyridin-2-yl)methyl)-1H-pyrazol-4-yl)methyl)-3H-[1,2,3]triazolo[4,5-b]pyridin-5-amine] | 0.001 to 0.1 | 0.001 to 0.1 |
| Nc1cc(Cc2cnn(Cc3cncc(-c4ccccc4)c3)c2)c2nn[nH]c2n1 [Example 125, 7-((1-((5-Phenylpyridin-3-yl)methyl)-1H-pyrazol-4-yl)methyl)-3H-[1,2,3]triazolo[4,5-b]pyridin-5-amine] | 0.001 to 0.1 | 0.001 to 0.1 |
| Nc1cccc(Cn2cc(Cc3cc(N)nc4[nH]nnc34)cn2)c1 [Example 126, 7-((1-(3-Aminobenzyl)-1H-pyrazol-4-yl)methyl)-3H-[1,2,3]triazolo[4,5-b]pyridin-5-amine] | 0.001 to 0.1 | 0.101 to 0.999 |
| Nc1cc(Cc2cnn(Cc3ccc4cnccc4c3)c2)c2nn[nH]c2n1 [Example 127, 7-((1-(Isoquinolin-6-ylmethyl)-1H-pyrazol-4-yl)methyl)-3H-[1,2,3]triazolo[4,5-b]pyridin-5-amine] | 0.101 to 0.999 | 0.101 to 0.999 |
| Nc1cc(Cc2cnn(Cc3ccc4[nH]c(=O)ccc4c3)c2)c2nn[nH]c2n1 [Example 132, 6-((4-((5-Amino-3H-[1,2,3]triazolo[4,5-b]pyridin-7-yl)methyl)-1H-pyrazol-1-yl)methyl)quinolin-2(1H)-one] | 0.001 to 0.1 | 0.001 to 0.1 |
| Nc1cc(Cc2cnn(Cc3cccc(-c4ccccn4)c3)c2)c2nn[nH]c2n1 [Example 133, 7-[(1-{[3-(Pyridin-2-yl)phenyl]methyl}-1H-pyrazol-4-yl)methyl]-3H-[1,2,3]triazolo[4,5-b]pyridin-5-amine] | 0.001 to 0.1 | 0.001 to 0.1 |
| CC(C)(C)c1cccc(Cn2cc(Cc3cc(N)nc4[nH]nnc34)cn2)c1 [Example 134, 7-({1-[(3-tert-Butylphenyl)methyl]-1H-pyrazol-4-yl}methyl)-3H-[1,2,3]triazolo[4,5-b]pyridin-5-amine] | 0.001 to 0.1 | 0.001 to 0.1 |
| Nc1cc(Cc2cnn(Cc3cccc4c3CCCC4)c2)c2nn[nH]c2n1 [Example 135, 7-{[1-(5,6,7,8-Tetrahydronaphthalen-1-ylmethyl)-1H-pyrazol-4-yl]methyl}-3H-[1,2,3]triazolo[4,5-b]pyridin-5-amine] | 0.001 to 0.1 | 0.001 to 0.1 |
| Nc1cc(Cc2cnn(CC3CCc4ccccc4C3)c2)c2nn[nH]c2n1 (centres unmarked) [Example 136, 7-{[1-(1,2,3,4-Tetrahydronaphthalen-2-ylmethyl)-1H-pyrazol-4-yl]methyl}-3H-[1,2,3]triazolo[4,5-b]pyridin-5-amine] | 0.001 to 0.1 | 0.001 to 0.1 |
| CCn1c(Cn2cc(Cc3cc(N)nc4[nH]nnc34)cn2)nc2ccccc21 [Example 138, 7-((1-((1-Ethyl-1H-benzo[d]imidazol-2-yl)methyl)-1H-pyrazol-4-yl)methyl)-3H-[1,2,3]triazolo[4,5-b]pyridin-5-amine] | 0.001 to 0.1 | 0.101 to 0.999 |
| CC1CCN(S(=O)(=O)c2cccc(Cn3cc(Cc4cc(N)nc5[nH]nnc45)cn3)c2)CC1 [Example 139, 7-{[1-({3-[(4-Methylpiperidin-1-yl)sulfonyl]phenyl}methyl)-1H-pyrazol-4-yl]methyl}-3H-[1,2,3]triazolo[4,5-b]pyridin-5-amine] | 0.001 to 0.1 | 0.101 to 0.999 |
| Nc1cc(Cc2cnn(C(CCO)c3ccccc3)c2)c2nn[nH]c2n1 (centres unmarked) [Example 143, 3-(4-((5-Amino-3H-[1,2,3]triazolo[4,5-b]pyridin-7-yl)methyl)-1H-pyrazol-1-yl)-3-phenylpropan-1-ol] | 0.101 to 0.999 | 0.101 to 0.999 |
| CC(C)(C)[Si](C)(C)OCC(c1ccccc1)n1cc(Cc2cc(N)nc3[nH]nnc23)cn1 (centres unmarked) [Example 144] | 0.101 to 0.999 | 0.101 to 0.999 |
| COc1ccc(Cn2cc(Cc3cc(N)nc4[nH]nnc34)cn2)cn1 [Example 149, 7-({1-[(6-Methoxypyridin-3-yl)methyl]-1H-pyrazol-4-yl}methyl)-3H-[1,2,3]triazolo[4,5-b]pyridin-5-amine] | 0.001 to 0.1 | 0.101 to 0.999 |
| Nc1cc(Cc2cnn(Cc3ccc4c(c3)OCO4)c2)c2nn[nH]c2n1 [Example 150, 7-{[1-(2H-1,3-Benzodioxol-5-ylmethyl)-1H-pyrazol-4-yl]methyl}-3H-[1,2,3]triazolo[4,5-b]pyridin-5-amine] | 0.001 to 0.1 | 0.101 to 0.999 |
| Nc1cc(Cc2cnn(Cc3ccc4c(c3)OCCO4)c2)c2nn[nH]c2n1 [Example 151, 7-{[1-(2,3-Dihydro-1,4-benzodioxin-6-ylmethyl)-1H-pyrazol-4-yl]methyl}-3H-[1,2,3]triazolo[4,5-b]pyridin-5-amine] | 0.001 to 0.1 | 0.101 to 0.999 |
| Nc1cc(Cc2cnn(Cc3ccc4c(c3)NCCC4)c2)c2nn[nH]c2n1 [Example 152, 7-{[1-(1,2,3,4-Tetrahydroquinolin-7-ylmethyl)-1H-pyrazol-4-yl]methyl}-3H-[1,2,3]triazolo[4,5-b]pyridin-5-amine] | 1 to 10 | 0.001 to 0.1 |

More lines, now with the values ahead:

| IC50 (myeloperoxidase (MPO) [1]) [µM] | IC50 (myeloperoxidase (MPO) [2]) [µM] | SMILES |
| --- | --- | --- |
| 0.001 to 0.1 | 0.101 to 0.999 | CS(=O)(=O)c1cccc(Cn2cc(Cc3cc(N)nc4[nH]nnc34)cn2)c1 [Example 122, 7-((1-(3-(Methylsulfonyl)benzyl)-1H-pyrazol-4-yl)methyl)-3H-[1,2,3]triazolo[4,5-b]pyridin-5-amine] |
| 0.001 to 0.1 | 0.001 to 0.1 | Nc1cc(Cc2cnn(Cc3cccc(-c4cccnc4)c3)c2)c2nn[nH]c2n1 [Example 124, 7-((1-(3-(Pyridin-3-yl)benzyl)-1H-pyrazol-4-yl)methyl)-3H-[1,2,3]triazolo[4,5-b]pyridin-5-amine] |
| 0.001 to 0.1 | 0.101 to 0.999 | Nc1cc(Cc2cnn(Cc3ccc4ncccc4c3)c2)c2nn[nH]c2n1 [Example 128, 7-((1-(Quinolin-6-ylmethyl)-1H-pyrazol-4-yl)methyl)-3H-[1,2,3]triazolo[4,5-b]pyridin-5-amine] |
| 0.101 to 0.999 | 1 to 10 | CC(C)(C)OC(=O)N1CCc2cc(Cn3cc(Cc4cc(N)nc5[nH]nnc45)cn3)ccc2C1 [Example 129, tert-Butyl 6-((4-((5-amino-3H-[1,2,3]triazolo[4,5-b]pyridin-7-yl)methyl)-1H-pyrazol-1-yl)methyl)-3,4-dihydroisoquinoline-2(1H)-carboxylate] |
| 0.101 to 0.999 | 0.101 to 0.999 | Nc1cc(Cc2cnn(Cc3ccc4c(c3)CCN(C(=O)c3ncc[nH]3)C4)c2)c2nn[nH]c2n1 [Example 131, (6-((4-((5-Amino-3H-[1,2,3]triazolo[4,5-b]pyridin-7-yl)methyl)-1H-pyrazol-1-yl)methyl)-3,4-dihydroisoquinolin-2(1H)-yl)(1H-imidazol-2-yl)methanone] |
| 0.001 to 0.1 | 0.101 to 0.999 | Cn1nc(Cn2cc(Cc3cc(N)nc4[nH]nnc34)cn2)c2ccccc21 [Example 137, 7-({1-[(1-Methyl-1H-indazol-3-yl)methyl]-1H-pyrazol-4-yl}methyl)-3H-[1,2,3]triazolo[4,5-b]pyridin-5-amine] |
| 0.001 to 0.1 | 0.101 to 0.999 | Cc1cncc(Oc2cccc(Cn3cc(Cc4cc(N)nc5[nH]nnc45)cn3)c2)n1 [Example 140, 7-{[1-({3-[(6-Methylpyrazin-2-yl)oxy]phenyl}methyl)-1H-pyrazol-4-yl]methyl}-3H-[1,2,3]triazolo[4,5-b]pyridin-5-amine] |
| 0.001 to 0.1 | 0.001 to 0.1 | COc1ccc(Cn2cc(Cc3cc(N)nc4[nH]nnc34)cn2)cc1 [Example 141, 7-({1-[(4-Methoxyphenyl)methyl]-1H-pyrazol-4-yl}methyl)-3H-[1,2,3]triazolo[4,5-b]pyridin-5-amine] |
| 0.101 to 0.999 | 0.101 to 0.999 | Nc1cc(Cc2cnn(C(CO)c3ccccc3)c2)c2nn[nH]c2n1 (centres unmarked) [Example 145, 2-(4-((5-Amino-3H-[1,2,3]triazolo[4,5-b]pyridin-7-yl)methyl)-1H-pyrazol-1-yl)-2-phenylethanol] |
| 0.101 to 0.999 | 0.101 to 0.999 | Nc1cc(Cc2cnn(C(CCCO)c3ccccc3)c2)c2nn[nH]c2n1 (centres unmarked) [Example 146, 4-[4-({5-Amino-3H-[1,2,3]triazolo[4,5-b]pyridin-7-yl}methyl)-1H-pyrazol-1-yl]-4-phenylbutan-1-ol] |
| 0.101 to 0.999 | 0.101 to 0.999 | CC(C)(C)OC(=O)N1CCCc2ccc(Cn3cc(Cc4cc(N)nc5[nH]nnc45)cn3)cc21 [Example 147, tert-Butyl 7-{[4-({5-amino-3H-[1,2,3]triazolo[4,5-b]pyridin-7-yl}methyl)-1H-pyrazol-1-yl]methyl}-1,2,3,4-tetrahydroquinoline-1-carboxylate] |
| 0.101 to 0.999 | 0.101 to 0.999 | CC(C)(C)OC(=O)N1CCc2ccc(Cn3cc(Cc4cc(N)nc5[nH]nnc45)cn3)cc2C1 [Example 148, tert-Butyl 7-{[4-({5-amino-3H-[1,2,3]triazolo[4,5-b]pyridin-7-yl}methyl)-1H-pyrazol-1-yl]methyl}-1,2,3,4-tetrahydroisoquinoline-2-carboxylate] |
| 0.001 to 0.1 | 0.001 to 0.1 | Nc1cc(Cc2cnn(Cc3ccc4c(c3)CNCC4)c2)c2nn[nH]c2n1 [Example 153, 7-{[1-(1,2,3,4-Tetrahydroisoquinolin-7-ylmethyl)-1H-pyrazol-4-yl]methyl}-3H-[1,2,3]triazolo[4,5-b]pyridin-5-amine] |
| 0.101 to 0.999 | 0.101 to 0.999 | N#Cc1cccc(-c2ccc(Cn3cc(Cc4cc(N)nc5[nH]nnc45)cn3)cc2)c1 [Example 154, 3-(4-{[4-({5-Amino-3H-[1,2,3]triazolo[4,5-b]pyridin-7-yl}methyl)-1H-pyrazol-1-yl]methyl}phenyl)benzonitrile] |
